Columns and labels:
cortactin tyrosine Y421 = assay: Immunofluorescence analysis of cortactin tyrosine phosphorylation at invadopodium precursors; type: cell-based, human; details: EGF stimulation 3 min; all concentrations (0.1, 1, 5 μM)
Description: Twenty-four hours before each experiment, cells were plated on fibronectin/gelatin unlabeled matrix in the presence of a Pyk2-PRR or control peptides at 0.1, 1, and 5 μM concentration and allowed to attach for eight hours. Cells were then starved in DMEM/0.5% FBS for 16 h in the presence of peptides and stimulated with 2.5 nM EGF for 3 min or left un-stimulated (0 min EGF). Cells were fixed and stained with mouse phospho-specific cortactin antibody (pY421). To image invadopodia Z-plane, focus was on the ventral surface of the cell where the leading edge containing cortactin is focused. The pixels corresponding to invadopodia dots were then analyzed, not the whole cell. The intensity (mean grey value (mgv) minus background) of cortactin-TagRFP and pY421-cortactin at invadopodium precursors was quantified. The pY421-cortactin/cortactin-TagRFP ratio was calculated as a measure of tyrosine-phosphorylated cortactin at cortactin-rich puncta. Data were normalized to resting cells (0 min EGF) and presented as the relative fold change in cortactin tyrosine phosphorylation.

MDA-MB-231 cells = assay: 3D scratch wound assay in Matrigel; type: cell-based, human; details: 0.1, 1, 5 μM peptide; versus scrambled control
Description: The 3D scratch wound assay was performed as described in Meirson et al. Targeting invadopodia-mediated breast cancer metastasis by using ABL kinase inhibitors. Oncotarget 2018; 9: 22158-22183. Briefly, 96 well Image Lock microtiter plates (Essen Bioscience) were coated with 100 μg/ml Matrigel (cat #354234; Corning, New-York, NY, USA). Following overnight incubation at 37° C., MDA-MB-231 cells were plated at a final concentration of 350,000 cells/ml and allowed to adhere for 12-16 h in the presence of Pyk2-PRR or control peptides. Following wounding of the bottom Matrigel-cells layer, a top layer of Matrigel was added to a final concentration of 2 mg/ml and allowed to polymerize for 30 min at 37° C. Pyk2-PRR or control scrambled peptides were then added again in DMEM/10% FBS to a final concentration of 0.1, 1, or 5 μM, with or without the MMP inhibitor GM6001 ([…]). Plates were placed in a 37° C. heated chamber, and images were collected using the IncuCyte® Zoom platform (Essen Bioscience; 20×, NA 0.60, air objective). Phase images were collected every one hour for a total of 12 h using the IncuCyte® acquisition software.

Structure (SMILES): C[C@H](NC(=O)[C@@H](N)[C@@H](C)O)C(=O)N[C@@H](Cc1ccccc1)C(=O)N[C@@H](CCC(N)=O)C(=O)N[C@@H](CCC(=O)O)C(=O)N1CCC[C@H]1C(=O)N1CCC[C@H]1C(=O)N1CCC[C@H]1C(=O)N[C@@H](CCCCN)C(=O)N1CCC[C@H]1C(=O)N[C@@H](CO)C(=O)N[C@@H](CCCNC(=N)N)C(=O)N1CCC[C@H]1C(=O)N[C@@H](CCCCN)C(=O)N[C@@H](Cc1ccc(O)cc1)C(=O)N[C@@H](CCCNC(=N)N)C(=O)N1CCC[C@H]1C(=O)N1CCC[C@H]1C(=O)N1CCC[C@H]1C(=O)O [Pyk2-PRR2, TAFQEPPPKPSRPKYRPPP]
- cortactin Y421 phosphorylation (cortactin tyrosine Y421): completely abolished
- invasion towards a scratch wound in 3D Matrigel (MDA-MB-231 cells): significantly reduced ability to close the gap
